# PubChem BioAssay AID1259411 (Chemical Carcinogenesis Research Information System (CCRIS), 2018)
# Activity calls are given as the source filed them. How the calls were made is not given here.
# Tested on: rodent carcinogenicity bioassays, tumor incidence
# Assay: CCRIS carcinogenicity studies
# Method in brief: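 Archive of carcinogenicity, mutagenicity, tumor promotion and tumor inhibition results drawn from journals, NCI reports and other sources, expert-reviewed; covers 1985-2011 and is no longer updated.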
smiles,measurement,setting,value
O=C(c1ccccc1)c1ccccc1,carcinogen call,"Species: Mouse, Strain/Sex: B6C3F1/Female, Route: Oral, Dose: 0, 312, 625, 1250 ppm in feed for 105 wks, Dose: 0, 312, 625, 1250 ppm in feed for 105 wks, Tumor Site: Type of Lesion: Histiocytic sarcoma: (0/50, 0/50, 5/50, 3/50) Liver: Hepatocellular adenoma (5/50, 4/50, 10/50, 8/50)",active; positive (ntp describes as some evidence); ntp describes results in liver as equ
same,carcinogen call,"Species: Mouse, Strain/Sex: B6C3F1/Male, Route: Oral, Dose: 0, 312, 625, 1250 ppm in feed for 105 wks, Dose: 0, 312, 625, 1250 ppm in feed for 105 wks, Tumor Site: Type of Lesion: Liver: Hepatocellular adenoma (11/50, 15/50, 23/50, 23/50), Hepatocellular adenoma, hepatocellular carcinoma, or hepatob",active; positive (ntp describes as some evidence)
same,carcinogen call,"Species: Rat, Strain/Sex: F344/N/Female, Route: Oral, Dose: 0, 312, 625, 1250 ppm in feed for 105 wks, Dose: 0, 312, 625, 1250 ppm in feed for 105 wks, Tumor Site: Type of Lesion: Mononuclear cell leukemia: (19/50, 25/50, 30/50, 29/50) Histiocytic sarcoma: (0/50, 0/50, 1/50, 2/50) Mammary gland: fib",equivocal; mononuclear cell leukemia and histiocytic sarcoma incidences describe
same,carcinogen call,"Species: Rat, Strain/Sex: F344/N/Male, Route: Oral, Dose: 0, 312, 625, 1250 ppm in feed for 105 wks, Dose: 0, 312, 625, 1250 ppm in feed for 105 wks, Tumor Site: Type of Lesion: Kidney: Renal tubule adenoma (1/50, 1/10, 2/50, 4/50), Mononuclear cell leukemia: (27/50, 41/50, 39/50, 24/50)",active; positive trend for renal tubule adenoma (ntp describes as some evidence); mononu
Nc1ccc(-c2ccc(F)cc2)cc1,carcinogen call,"Species: MOUSE, Strain/Sex: CBA/FEMALE, Route: GAVAGE, Dose: 0, 0.05 ML OF 1% IN ARACHIS OIL 2/WK FOR 6 MO FOR AN ESTIMATED TOTAL DOSE OF 0, 13 MG (STUDY DURATION: 119 WK), Dose: 0, 0.05 ML OF 1% IN ARACHIS OIL 2/WK FOR 6 MO FOR AN ESTIMATED TOTAL DOSE OF 0, 13 MG (STUDY DURATION: 119 WK), Tumor Site: Type of Lesion: LIVER: HEPATOMA",active; positive
same,carcinogen call,"Species: MOUSE, Strain/Sex: CBA/MALE, Route: GAVAGE, Dose: 0, 0.05 ML OF 1% IN ARACHIS OIL 2/WK FOR 6 MO FOR AN ESTIMATED TOTAL DOSE OF 0, 13 MG (STUDY DURATION: 109 WK), Dose: 0, 0.05 ML OF 1% IN ARACHIS OIL 2/WK FOR 6 MO FOR AN ESTIMATED TOTAL DOSE OF 0, 13 MG (STUDY DURATION: 109 WK), Tumor Site: Type of Lesion: LIVER: HEPATOMA",active; positive
CC[C@H](C)[C@H]1O[C@]2(C=C[C@@H]1C)C[C@@H]1C[C@@H](C/C=C(\C)[C@@H](O[C@H]3C[C@H](OC)[C@@H](O[C@H]4C[C@H](OC)[C@@H](NC)[C@H](C)O4)[C@H](C)O3)[C@@H](C)/C=C/C=C3\CO[C@@H]4[C@H](O)C(C)=C[C@@H](C(=O)O1)[C@]34O)O2,carcinogen call,"Species: Mouse, Strain/Sex: Strain not specified/Female (50/Group), Route: Oral, Dose: 0, 0.5, 2.5, 12.5 (lowered to 7.5 at wk 48) mg/kg/day in the diet for 79 wk, study duration 79 wk, Dose: 0, 0.5, 2.5, 12.5 (lowered to 7.5 at wk 48) mg/kg/day in the diet for 79 wk, study duration 79 wk",inactive; negative
same,carcinogen call,"Species: Mouse, Strain/Sex: Strain not specified/Male (50/Group), Route: Oral, Dose: 0, 0.5, 2.5, 12.5 (lowered to 7.5 at wk 9 and to 5 at wk 31) mg/kg/day in the diet for 79 wk, study duration 79 wk, Dose: 0, 0.5, 2.5, 12.5 (lowered to 7.5 at wk 9 and to 5 at wk 31) mg/kg/day in the diet for 79 wk, study duration 79 wk",inactive; negative
same,carcinogen call,"Species: Rat, Strain/Sex: Strain not specified/Female (65/Group), Route: Oral, Dose: 0, 0.25, 1, 5 (lowered to 2.5 at wk 10) mg/kg/day in the diet for 105 wk, study duration 105 wk, Dose: 0, 0.25, 1, 5 (lowered to 2.5 at wk 10) mg/kg/day in the diet for 105 wk, study duration 105 wk",inactive; negative
same,carcinogen call,"Species: Rat, Strain/Sex: Strain not specified/Male (65/Group), Route: Oral, Dose: 0, 0.25, 1, 5 (lowered to 2.5 at wk 6) mg/kg/day in the diet for 105 wk, study duration 105 wk, Dose: 0, 0.25, 1, 5 (lowered to 2.5 at wk 6) mg/kg/day in the diet for 105 wk, study duration 105 wk",inactive; negative
O=NN(CCO)C(=O)NCCCl,carcinogen call,"Species: RAT, Strain/Sex: F344/FEMALE, Route: ORAL, Dose: 0, 42 MG/L IN DRINKING WATER 5 D/WK FOR 30 WK (STUDY DURATION: LIFETIME), Tumor Site: Type of Lesion: LIVER: TUMOR, UTERUS: TUMOR, SKIN: TUMOR, Tumor Site: Type of Lesion: LIVER: TUMOR, UTERUS: TUMOR, SKIN: TUMOR",active; positive
same,carcinogen call,"Species: RAT, Strain/Sex: F344/MALE, Route: ORAL, Dose: 0, 42 MG/L IN DRINKING WATER 5 D/WK FOR 30 WK (STUDY DURATION: LIFETIME), Tumor Site: Type of Lesion: LIVER: TUMOR, LUNG: TUMOR, MESOTHELIUM: TUMOR, SKIN: TUMOR, Tumor Site: Type of Lesion: LIVER: TUMOR, LUNG: TUMOR, MESOTHELIUM: TUMOR, SKIN: TUMOR",active; positive
CC(=O)N[C@@H](C=O)[C@@H](O)[C@H](O)[C@H](O)CO,carcinogen call,"Species: Rat, Strain/Sex: F344/Female, Route: Oral, Dose: 0, 2.5, 5% in diet for 104 wk",inactive; negative
same,carcinogen call,"Species: Rat, Strain/Sex: F344/Male, Route: Oral, Dose: 0, 2.5, 5% in diet for 104 wk",inactive; negative
O=C(O)c1cc2ccccc2c(N=Nc2ccccc2)c1O,carcinogen call,"Species: MOUSE, Strain/Sex: ICR/FEMALE, Route: DERMAL, Dose: 0, 1 MG IN 0.1 ML DISTILLED WATER 2/WK FOR A MEAN TOTAL DOSE OF 122.2 MG (STUDY DURATION: 18 MO)",inactive; negative
same,carcinogen call,"Species: MOUSE, Strain/Sex: ICR/MALE, Route: DERMAL, Dose: 0, 1 MG IN 0.1 ML DISTILLED WATER 2/WK FOR A MEAN TOTAL DOSE OF 122.2 MG (STUDY DURATION: 18 MO)",inactive; negative
COc1cc2c(c3c1c(=O)c1ccccc1n3C)C=CC(C)(C)O2,carcinogen call,"Species: RAT, Strain/Sex: SPRAGUE-DAWLEY/FEMALE, Route: INTRAPERITONEAL, Dose: 0, 3.75, 7.5, 15 MG/KG FOR 52 WK (STUDY DURATION: 80-82 WK), Dose: 0, 3.75, 7.5, 15 MG/KG FOR 52 WK (STUDY DURATION: 80-82 WK), Tumor Site: Type of Lesion: MAMMARY GLAND: FIBROADENOMA, PERITONEAL CAVITY: SARCOMA OR FIBROSARCOMA OR MESOTHELIOMA",active; positive
same,carcinogen call,"Species: RAT, Strain/Sex: SPRAGUE-DAWLEY/MALE, Route: INTRAPERITONEAL, Dose: 0, 3.75, 7.5, 15 MG/KG FOR 51-52 WK (STUDY DURATION: 51-82 WK), Dose: 0, 3.75, 7.5, 15 MG/KG FOR 51-52 WK (STUDY DURATION: 51-82 WK), Tumor Site: Type of Lesion: MUSCULOSKELETAL SYSTEM: OSTEOSARCOMA, PERITONEAL CAVITY: SARCOMA OR FIBROSARCOMA OR MESOTHELIOMA",active; positive
